# Source: US11207312B2, “Metallo-beta-lactamase inhibitors and methods of use thereof” (priority 2017, dated 2021)
# Where two headings read alike, the source gives them in different places.
# Assays:
# [1] = tested on: P. aeruginosa MB9799 (efflux-, IMP-1 plasmid); type: cell-based, Pseudomonas aeruginosa; conditions: efflux − (MB9799) strain; imipenem at 2 μg/mL; in the presence of a class A, C, D serine β-lactamase inhibitor closely related to relebactam
# Procedure, shortened: (§1)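 Isogenic P. aeruginosa PAO1 strains (efflux+ and multiple-efflux-pump-disrupted) carrying plasmid IMP-1, with inducible AmpC, tested by broth microdilution. Imipenem and/or ceftazidime fixed, usually at CLSI breakpoint, plus fixed class A/C β-lactamase inhibitor; titrated MBL inhibitor concentration restoring susceptibility recorded and compared between strains as efflux fold difference.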
# IMP-1 = IMP-1 (Serratia marcescens, UniProt P52699); assay: biochemical; conditions: CCF2-FA fluorescence assay, 2 hours at 25° C.; read-out: IMP1 IC50
# Procedure, shortened: (§2)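 IC50s come from 4-parameter fits of inhibition versus inhibitor concentration, tested from 20 μM down to 0.00063 μM. Enzyme, CCF2-FA (1.25 μM) and inhibitor react 2 h at 25° C, pH 7, with 10 μM ZnSO4 and 0.005% Tween-20.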
# VIM-1 = VIM-1 (Pseudomonas aeruginosa (strain ATCC 15692 / DSM 22644 / CIP 104116 / JCM 14847 / LMG 12228 / 1C / PRS 101 / PAO1), UniProt A0A0F7KYQ8); assay: biochemical; conditions: CCF2-FA fluorescence assay, 2 hours at 25° C.; read-out: VIM1 IC50
# Procedure, shortened: as §2
# [2] = tested on: Klebsiella pneumoniae expressing VIM-1 (IHMA599644); type: cell-based; conditions: with imipenem 1 μg/ml; 95% inhibition of bacterial growth
# Procedure, shortened: (§3)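 Clinical MBL-producing strains grown overnight at 35° C, diluted 1:100 into CAMHB, then exposed to test compound with imipenem at 1 μg/ml for 22–24 h at 35° C. Absorbance read-out; MITC95 is the lowest compound concentration giving 95% growth inhibition with imipenem.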
# [3] = tested on: Serratia marcescens expressing IMP-1 (CL5741); type: cell-based; conditions: with imipenem 1 μg/ml; 95% inhibition of bacterial growth
# Procedure, shortened: as §3
# [4] = tested on: Escherichia coli expressing NDM-1 (CLB30016); type: cell-based; conditions: with imipenem 1 μg/ml; 95% inhibition of bacterial growth
# Procedure, shortened: as §3
# NDM-1 = NDM-1 (Klebsiella pneumoniae, UniProt C7C422); assay: biochemical; type: biochemical; conditions: CCF2-FA fluorescence assay, 2 hours at 25° C.
# Procedure, shortened: as §2
# [5] = tested on: P. aeruginosa MB9798 (efflux+, IMP-1 plasmid); conditions: for MB9798 MITC95 P. aeruginosa uM Efflux WT: efflux + (MB9798) strain, imipenem at 2 μg/mL, in the presence of a class A, C, D serine β-lactamase inhibitor closely related to relebactam; for Efflux ratio: fold difference between efflux+ (MB9798) and efflux− (MB9799) strains
# Procedure, shortened: as §1
# VIM-2 = VIM-2 (Escherichia coli, UniProt Q5U7L7); assay: biochemical
# [6] = CCF2-FA fluorescence assay, read-out: VIM2 IC50
# Sequence of NDM-1 (C7C422 whole entry, looked up, species assumed): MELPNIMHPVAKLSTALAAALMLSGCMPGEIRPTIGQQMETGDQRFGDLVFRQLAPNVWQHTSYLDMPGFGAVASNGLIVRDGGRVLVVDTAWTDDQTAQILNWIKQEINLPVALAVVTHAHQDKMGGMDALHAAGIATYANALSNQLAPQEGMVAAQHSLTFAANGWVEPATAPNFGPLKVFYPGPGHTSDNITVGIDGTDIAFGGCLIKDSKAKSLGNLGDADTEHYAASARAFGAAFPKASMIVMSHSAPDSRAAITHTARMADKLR
# Sequence of IMP-1 (P52699 whole entry, looked up, species assumed): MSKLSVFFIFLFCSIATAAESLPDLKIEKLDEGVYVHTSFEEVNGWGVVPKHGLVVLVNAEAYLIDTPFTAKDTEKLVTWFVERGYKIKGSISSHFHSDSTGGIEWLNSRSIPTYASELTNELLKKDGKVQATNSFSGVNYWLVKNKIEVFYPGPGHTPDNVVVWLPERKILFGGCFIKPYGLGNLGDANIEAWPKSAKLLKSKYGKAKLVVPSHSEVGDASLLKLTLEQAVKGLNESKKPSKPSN
SMILES,MB9799 MITC95 P. aeruginosa uM Efflux Mutant [1] [µM],IC50 (IMP-1) [nM],IC50 (VIM-1) [nM],IHMA599644 K. pneumoniae MITC95 VIM [2] [µM],CL5741 S. marcescens MITC95 IMP [3] [µM],CLB30016 E. coli MITC95 NDM [4] [µM],IC50 (NDM-1) [nM],MB9798 MITC95 P. aeruginosa uM Efflux WT [5] [µM],Efflux ratio [5],"IC50 (VIM-2; VIM2 IC50, CCF2-FA fluorescence assay) [nM]",IC50 (VIM-2; [6]) [nM]
"NC[C@@H](O)CNS(=O)(=O)c1ccc(N2CCC(C(N)CO)CC2)c(-c2nn[nH]n2)c1S(N)(=O)=O (single isomer, unassigned) [Example 180]",0.78,6.3,0.44,1.56,0.78,0.39,5.73,0.78,1.00,5.92,
"NS(=O)(=O)c1c(S(=O)(=O)C2CNC2)ccc(N2CCC(CO)CC2)c1-c1nnn[nH]1 [Example 58, 6-(azetidin-3-ylsulfonyl)-3-[4-(hydroxymethyl)piperidin-1-yl]-2-(1H-tetrazol-5-yl)benzenesulfonamide]",1.56,0.85,0.42,6.25,6.25,3.13,1.03,6.25,4.00,,1.67
"CC1(C)CN(c2ccc(S(=O)(=O)NC[C@H](O)CN)c(S(N)(=O)=O)c2-c2nn[nH]n2)CCN1CCO [Example 173, (R)-N1-(3-amino-2-hydroxypropyl)-4-(4-(2-hydroxyethyl)-3,3-dimethylpiperazin-1-yl)-3-(2H-tetrazol-5-yl)benzene-1,2-disulfonamide]",1.56,10.5,13.7,6.25,3.13,1.56,19.8,6.25,4.00,,114
"NC[C@@H](O)CNS(=O)(=O)c1ccc(N2CC[C@H](CN)[C@@H](F)C2)c(-c2nn[nH]n2)c1S(N)(=O)=O (stereo in doubt) [Example 13, N^1—((R)-3-amino-2-hydroxypropyl)-4-(trans-4-(aminomethyl)-3-fluoropiperidin-1-yl)-3-(2H-tetrazol-5-yl)benzene-1,2-disulfonamide]",0.39,3.7,0.14,0.78,0.78,1.56,3.01,0.78,2.00,,4.12
"C[N+](C)(C)CCCCNc1ccc(S(=O)(=O)N[C@@H]2CCNC2)c(S(N)(=O)=O)c1-c1nnn[nH]1 [Example 72, N,N,N-trimethyl-4-({4-[(3R)-pyrrolidin-3-ylsulfamoyl]-3-sulfamoyl-2-(1H-tetrazol-5-yl)phenyl}amino)butan-1-aminium]",3.13,9.32,2.01,6.25,3.13,1.56,3.31,25.00,8.00,,6.04
"NS(=O)(=O)c1c(S(=O)(=O)N[C@@H]2CCNC2)ccc(N2CCC(CO)CC2)c1-c1nnn[nH]1 [Example 101, 4-[4-(hydroxymethyl)piperidin-1-yl]-N1-[(3R)-pyrrolidin-3-yl]-3-(1H-tetrazol-5-yl)benzene-1,2-disulfonamide]",0.78,0.16,0.09,3.13,1.56,0.78,0.08,1.56,2.00,,0.39
"NS(=O)(=O)c1c(S(=O)(=O)N[C@@H]2CCNC2)ccc(NCCN2CCNCC2)c1-c1nnn[nH]1 [Example 75, 4-[(2-piperazin-1-ylethyl)amino]-N1-[(3R)-pyrrolidin-3-yl]-3-(1H-tetrazol-5-yl)benzene-1,2-disulfonamide]",3.13,178,6.75,3.13,12.50,6.25,162,25.00,8.00,,200
"NC[C@@H](O)CNS(=O)(=O)c1ccc(N2CCN(CCO)C(=O)C2)c(-c2nn[nH]n2)c1S(N)(=O)=O [Example 146, (R)-N1-(3-amino-2-hydroxypropyl)-4-(4-(2-hydroxyethyl)-3-oxopiperazin-1-yl)-3-(2H-tetrazol-5-yl)benzene-1,2-disulfonamide]",1.56,2.25,0.31,6.25,3.13,1.56,2.32,1.56,1.00,,1.77
"NCC1CCN(c2ccc(S(=O)(=O)N[C@H](CN)CO)c(S(N)(=O)=O)c2-c2nn[nH]n2)CC1 [Example 186, (R)-N1-(1-amino-3-hydroxypropan-2-yl)-4-(4-(aminomethyl)piperidin-1-yl)-3-(2H-tetrazol-5-yl)benzene-1,2-disulfonamide]",0.78,40.6,2.85,1.56,1.56,3.13,18.7,1.56,2.00,,68.7
NCC1=CCN(c2ccc(S(=O)(=O)NC[C@H](O)CN)c(S(N)(=O)=O)c2-c2nn[nH]n2)C1.O=C(O)C(F)(F)F.O=C(O)C(F)(F)F [Example 170],1.56,15.3,5.64,1.56,1.56,1.56,11.4,6.25,4.00,,42.9
"NC[C@@H](O)CNS(=O)(=O)c1ccc(N2CCC(c3c[nH]cn3)CC2)c(-c2nnn[nH]2)c1S(N)(=O)=O [Example 169, (R)-4-(4-(1H-imidazol-4-yl)piperidin-1-yl)-N1-(3-amino-2-hydroxypropyl)-3-(1H-tetrazol-5-yl)benzene-1,2-disulfonamide]",0.78,0.26,0.1,2.34,1.17,0.39,0.23,0.78,1.00,,0.4
NC[C@@H]1CCN(c2ccc(S(=O)(=O)N[C@@H]3CCNC3)c(S(N)(=O)=O)c2-c2nn[nH]n2)C[C@@H]1F (racemic) [Example 7],0.39,3.49,0.24,0.78,0.39,0.20,0.68,0.78,2.00,,4.46
"NS(=O)(=O)c1c(S(=O)(=O)N[C@@H]2CCNC2)ccc(N2CC[C@@H](O)C2)c1-c1nnn[nH]1 [Example 99, 4-[(3R)-3-hydroxypyrrolidin-1-yl]-N1-[(3R)-pyrrolidin-3-yl]-3-(1H-tetrazol-5-yl)benzene-1,2-disulfonamide]",3.13,1.33,2.66,6.25,3.13,1.56,0.92,3.13,1.00,,3.22
